Source: patent US20210007350A1, “USE OF A FUNGICIDAL COMPOSITION AS TREATMENT FOR POWDERY MILDEW” (DESARROLLO AGRICOLA Y MINERO, S.A., priority 2017, published 2021)

Tested on: powdery mildew (Sphaerotheca macularis)
Assay: Control of powdery mildew in greenhouse strawberry cultivation (field efficacy trial)
Assay type: in vivo
Settings: Myclobutanil 20 g/l, dose 30 ml/hl
Description: To reflect the efficacy of the invention presented in this description, comparative studies were performed in commercial conditions. Thus, commercial application of the present fungicidal composition is carried out by ground spraying with manual sprayers, motor pumps, or other similar means. The invention is further characterised by a specific use with a product application dose of between 0.05 l/hl and 0.5 l/hl, and preferably between 0.2 l/hl and 0.3 l/hl of the composition described herein.
The conditions of the application solution will be those normally used for the crops described. The following examples show the spraying case.
Example 1: Application of the Fungicidal Composition for the Control of Powdery Mildew (Sphaerotheca macularis) in Strawberries
The aim of the protocol was to evaluate the effect of the fungicidal composition applied in different doses for the control of powdery mildew (Sphaerotheca macularis) in greenhouse strawberry cultivation and compare its efficacy against that of a standard chemical phytosanitary product such as myclobutanil. Location: Almeria (Spain). Variety: Benicia.
Untreated control specimen
Myclobutanil 20 g/l, dose 30 ml/hl
Fungicidal composition, dose 0.2l/hl
Fungicidal composition, dose 0.3l/hl
Number of applications: 4
Use of solution: 1000 l/ha.
Parameters evaluated: Efficacy.
Efficacy data were taken at the following times.
T0: 0, before first application.
T1: 10 days after the first application and just before the second application.
T2: 9 days after the second application and just before the third application.
T3: 9 days after the third application and just before the fourth application
T4: 7 days after the fourth application.

CCCCC(C#N)(Cn1cncn1)c1ccc(Cl)cc1 (centres unmarked) [Myclobutanil, myclobutanil]
efficacy % (T0) (T0: before first application, strawberry var. Benicia, greenhouse): 0%
efficacy % (T1) (T1: 10 days after the first application): 92.4%
efficacy % (T2) (T2: 9 days after the second application): 97.0%
efficacy % (T3) (T3: 9 days after the third application): 95.8%
efficacy % (T4) (T4: 7 days after the fourth application): 98.3%
